Laboratory results taken from US11072612B2, “NLRP3 modulators” (INNATE TUMOR IMMUNITY, INC., priority 2016, dated 2021).

Experiments:
Assay type in all cases: cell-based
[1] = target: T1, hNLRP3 (Homo sapiens, UniProt Q96P20); assay: hNLRP3 agonist assay: IL-1β production in PMA-differentiated THP-1 cells (ELISA); conditions: Table 2, 4 hours, IL-1β by ELISA
T1 construct: THP-1 cells were purchased from the American Type Culture Collection; host or cells: THP-1 cells, PMA-differentiated

[2] = target: T2, TLR8 (Homo sapiens, UniProt Q9NR97); assay: TLR8 EC50 assay; conditions: Table 2
T2 sequence (Q9NR97 27-1041): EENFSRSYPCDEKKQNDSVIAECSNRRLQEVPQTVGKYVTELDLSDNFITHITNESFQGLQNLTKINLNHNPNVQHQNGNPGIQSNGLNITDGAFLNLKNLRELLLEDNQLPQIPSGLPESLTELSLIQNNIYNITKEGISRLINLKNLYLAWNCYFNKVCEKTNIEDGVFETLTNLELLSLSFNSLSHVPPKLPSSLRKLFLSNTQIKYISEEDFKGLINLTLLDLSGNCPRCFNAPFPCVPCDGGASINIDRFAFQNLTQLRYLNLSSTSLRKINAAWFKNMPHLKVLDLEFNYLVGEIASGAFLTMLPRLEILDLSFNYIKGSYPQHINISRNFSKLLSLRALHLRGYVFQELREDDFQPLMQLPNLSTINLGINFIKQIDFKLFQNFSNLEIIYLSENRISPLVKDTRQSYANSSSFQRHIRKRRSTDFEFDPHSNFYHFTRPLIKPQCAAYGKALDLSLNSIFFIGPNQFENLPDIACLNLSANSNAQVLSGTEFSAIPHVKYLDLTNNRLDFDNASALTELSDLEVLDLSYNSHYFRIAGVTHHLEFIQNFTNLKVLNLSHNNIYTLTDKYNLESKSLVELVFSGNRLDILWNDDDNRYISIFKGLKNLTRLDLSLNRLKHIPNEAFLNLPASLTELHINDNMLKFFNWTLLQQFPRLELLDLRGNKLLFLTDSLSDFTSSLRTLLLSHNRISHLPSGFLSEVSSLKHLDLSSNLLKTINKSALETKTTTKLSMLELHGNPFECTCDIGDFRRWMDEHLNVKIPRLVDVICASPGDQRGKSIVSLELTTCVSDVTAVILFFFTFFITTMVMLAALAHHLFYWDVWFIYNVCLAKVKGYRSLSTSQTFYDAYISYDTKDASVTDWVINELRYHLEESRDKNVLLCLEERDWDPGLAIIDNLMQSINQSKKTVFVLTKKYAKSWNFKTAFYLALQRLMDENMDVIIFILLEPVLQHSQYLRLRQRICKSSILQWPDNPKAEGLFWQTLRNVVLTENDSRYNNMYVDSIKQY

[3] = target: T3, TLR7 (Homo sapiens, UniProt Q9NYK1); assay: TLR7 EC50 assay; conditions: Table 2
T3 sequence (Q9NYK1 27-1049): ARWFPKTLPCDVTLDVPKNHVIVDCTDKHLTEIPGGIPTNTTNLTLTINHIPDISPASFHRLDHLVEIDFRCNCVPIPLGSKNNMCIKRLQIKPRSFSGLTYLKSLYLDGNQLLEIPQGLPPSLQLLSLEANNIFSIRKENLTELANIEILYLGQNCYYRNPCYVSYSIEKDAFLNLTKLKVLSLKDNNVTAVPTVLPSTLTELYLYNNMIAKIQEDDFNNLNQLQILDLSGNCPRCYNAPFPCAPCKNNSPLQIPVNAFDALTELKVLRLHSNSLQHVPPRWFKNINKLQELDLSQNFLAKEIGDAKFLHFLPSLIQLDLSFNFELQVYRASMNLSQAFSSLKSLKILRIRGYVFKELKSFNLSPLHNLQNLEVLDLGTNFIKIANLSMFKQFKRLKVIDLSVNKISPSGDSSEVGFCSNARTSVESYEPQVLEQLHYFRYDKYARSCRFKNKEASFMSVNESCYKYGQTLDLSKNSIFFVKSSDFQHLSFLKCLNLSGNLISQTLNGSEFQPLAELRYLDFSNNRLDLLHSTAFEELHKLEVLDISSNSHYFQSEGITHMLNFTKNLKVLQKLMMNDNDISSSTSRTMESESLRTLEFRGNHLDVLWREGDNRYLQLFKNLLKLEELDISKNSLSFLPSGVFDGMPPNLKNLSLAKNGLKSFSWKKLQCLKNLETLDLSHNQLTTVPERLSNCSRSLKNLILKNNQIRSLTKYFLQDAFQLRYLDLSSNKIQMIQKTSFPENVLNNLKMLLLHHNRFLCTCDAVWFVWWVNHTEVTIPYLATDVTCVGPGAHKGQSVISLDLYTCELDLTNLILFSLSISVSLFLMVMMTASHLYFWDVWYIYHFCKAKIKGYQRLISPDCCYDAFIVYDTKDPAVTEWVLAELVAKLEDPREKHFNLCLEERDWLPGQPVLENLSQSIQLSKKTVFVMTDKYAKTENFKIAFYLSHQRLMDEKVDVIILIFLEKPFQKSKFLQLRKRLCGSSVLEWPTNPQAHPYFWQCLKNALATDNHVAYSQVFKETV

T1 sequence (Q96P20 whole entry): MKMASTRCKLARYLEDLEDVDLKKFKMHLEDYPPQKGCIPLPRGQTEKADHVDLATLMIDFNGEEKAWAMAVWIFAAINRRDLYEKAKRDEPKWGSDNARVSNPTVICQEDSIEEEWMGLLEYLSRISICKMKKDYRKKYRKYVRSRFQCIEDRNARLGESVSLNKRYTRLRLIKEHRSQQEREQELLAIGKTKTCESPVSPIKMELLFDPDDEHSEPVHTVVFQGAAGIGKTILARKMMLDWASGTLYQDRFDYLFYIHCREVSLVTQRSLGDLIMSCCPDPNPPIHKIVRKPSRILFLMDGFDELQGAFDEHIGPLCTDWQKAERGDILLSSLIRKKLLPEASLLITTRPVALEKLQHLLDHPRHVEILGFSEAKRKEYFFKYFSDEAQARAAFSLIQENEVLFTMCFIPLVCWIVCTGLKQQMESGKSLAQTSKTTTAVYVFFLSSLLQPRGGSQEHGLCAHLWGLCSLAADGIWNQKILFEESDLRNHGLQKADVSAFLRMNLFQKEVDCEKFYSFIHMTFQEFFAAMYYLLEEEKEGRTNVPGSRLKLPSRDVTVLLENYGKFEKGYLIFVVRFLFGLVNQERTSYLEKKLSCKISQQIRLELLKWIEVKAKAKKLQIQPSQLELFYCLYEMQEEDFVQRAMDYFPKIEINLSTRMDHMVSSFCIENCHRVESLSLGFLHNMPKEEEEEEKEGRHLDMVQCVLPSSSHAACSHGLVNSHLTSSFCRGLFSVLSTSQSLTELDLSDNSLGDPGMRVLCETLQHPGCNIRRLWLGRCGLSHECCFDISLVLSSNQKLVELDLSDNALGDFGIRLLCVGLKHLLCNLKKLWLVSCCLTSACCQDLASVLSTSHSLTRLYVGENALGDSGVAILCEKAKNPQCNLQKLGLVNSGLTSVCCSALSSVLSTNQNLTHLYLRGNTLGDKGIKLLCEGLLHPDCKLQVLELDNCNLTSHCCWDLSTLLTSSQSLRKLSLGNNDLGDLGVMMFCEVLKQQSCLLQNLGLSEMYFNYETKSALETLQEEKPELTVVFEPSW

Row | Compound | EC50 [1] | EC50 [2] | EC50 [3]
1 | CC(C)(C)OC(=O)N1CCC(c2nc3c(N)nc4cc(-c5ccccc5)ccc4c3[nH]2)CC1 [Compound 219] | ≤ 1 µM | > 100 µM | > 100 µM
2 | Nc1nc2cc(Br)ccc2c2[nH]c(C3CCN(S(=O)(=O)c4ccccc4)CC3)nc12 [Compound 220] | 1 to 20 µM | > 100 µM | > 100 µM
3 | CC(C)(C)OC(=O)N1CCC(c2nc3c(N)nc4cc(-c5cccnc5)ccc4c3[nH]2)CC1 [Compound 221] | 1 to 20 µM | > 100 µM | > 100 µM
4 | Nc1nc2cc(-c3ccccc3)ccc2c2[nH]c(C3CCNCC3)nc12 [Compound 222] | 1 to 20 µM | > 100 µM | > 100 µM
5 | Nc1nc2ccccc2c2[nH]c(C3CCNCC3)nc12 [Compound 224] | 20 to 100 µM | > 100 µM | > 100 µM
6 | CC(C)(C)OC(=O)N1CCC(c2nc3c(N)nc4cc(Br)ccc4c3[nH]2)CC1 [Compound 225] | 1 to 20 µM | > 100 µM | > 100 µM
7 | CC(=O)N1CCC(c2nc3c(N)nc4cc(Br)ccc4c3[nH]2)CC1 [Compound 226] | 20 to 100 µM | > 100 µM | > 100 µM
8 | CC(=O)NCCCn1c(C2CCN(C(=O)c3ccccc3)CC2)nc2c(N)nc3cc(Br)ccc3c21 [Compound 227] | 20 to 100 µM | > 100 µM | > 100 µM
9 | CN1CCC(c2nc3c(N)nc4ccccc4c3[nH]2)CC1 [Compound 228] | 20 to 100 µM | > 100 µM | > 100 µM
10 | Nc1nc2cc(-c3cc[nH]n3)ccc2c2[nH]c(CN3CC4COCC4C3)nc12 (stereo not drawn) [Compound 232] | 1 to 20 µM | > 100 µM | > 100 µM
11 | Nc1nc2cc(-c3cc[nH]n3)ccc2c2[nH]c(CN3CCCC3)nc12 [Compound 233] | ≤ 1 µM | > 100 µM | > 100 µM
12 | Nc1nc2cc(-c3ccc[nH]c3=O)ccc2c2[nH]c(CCCO)nc12 [Compound 238] | 1 to 20 µM | > 100 µM | > 100 µM
13 | Nc1nc2cc(-c3cccc(=O)[nH]3)ccc2c2[nH]c(CCCO)nc12 [Compound 239] | 1 to 20 µM | > 100 µM | > 100 µM

Now from value to compound:

Row | EC50 [1] | EC50 [2] | EC50 [3] | Compound
14 | 1 to 20 µM | > 100 µM | > 100 µM | CCNC(C)c1nc2c(N)nc3cc(-c4cc[nH]n4)ccc3c2[nH]1 (stereo not drawn) [Compound 240]
15 | 1 to 20 µM | > 100 µM | > 100 µM | CCN(C(C)=O)C(C)c1nc2c(N)nc3cc(-c4cc[nH]n4)ccc3c2[nH]1 (stereo not drawn) [Compound 241]
16 | 1 to 20 µM | > 100 µM | > 100 µM | CCN(C(=O)OC(C)(C)C)C(C)c1nc2c(N)nc3cc(-c4cc[nH]n4)ccc3c2n1Cc1ccc(OC)cc1 (stereo not drawn) [Compound 242]
17 | 1 to 20 µM | > 100 µM | > 100 µM | COc1cccc(-c2ccc3c(c2)nc(N)c2nc(CCCO)[nH]c23)n1 [Compound 246]
18 | 1 to 20 µM | > 100 µM | > 100 µM | COc1cccc(-c2ccc3c(c2)nc(N)c2nc(CCCOCc4ccccc4)[nH]c23)n1 [Compound 247]
19 | 1 to 20 µM | > 100 µM | > 100 µM | Nc1nc2cc(-c3ccc[nH]c3=O)ccc2c2[nH]c(CCCOCc3ccccc3)nc12 [Compound 249]
20 | 1 to 20 µM | > 100 µM | > 100 µM | CCNC(C)(C)c1nc2c(N)nc3cc(-c4cc[nH]n4)ccc3c2[nH]1 [Compound 251]
21 | 1 to 20 µM | > 100 µM | > 100 µM | CCN(C(=O)OC(C)(C)C)C(C)(C)c1nc2c(N)nc3cc(-c4cc[nH]n4)ccc3c2n1Cc1ccc(OC)cc1 [Compound 252]
22 | 1 to 20 µM | > 100 µM | > 100 µM | CCN(C(C)=O)C(C)(C)c1nc2c(N)nc3cc(-c4cc[nH]n4)ccc3c2[nH]1 [Compound 253]
